Like-named read-outs stand apart in the source and are kept apart here.
Assays:
CDK7/CycH/Mat1 = CDK7/CycH/Mat1 (Homo sapiens, UniProt P50613); test: CDK7 Enzymatic Activity Assay (Lance Kinase Activity Assay, FRET); format: biochemical
Experimental: (§1) This protocol describes how the Lance Kinase Activity Assay was performed to determine IC50 values of compounds of general formula (I) against CDK/Cyclin complexes. The principle behind this enzymatic assay is based upon the phosphorylation of the Ulight-Peptide Substrat. It is detected by using a specific EU-labeled anti-phospho peptide antibody.
(§2) Binding of an inhibitor to the kinase prevents phosphorylation of the Ulight-MBP Substrat, resulting in a loss of FRET.
CDK7 Enzymatic Activity Assay
(§3) The compounds of general formula (I) exemplary summarized in Table 1 were diluted from a 10 mM DMSO stock solution 1:10 in a total volume of 15 μl DMSO. This compound predilution was then serial diluted 1:3 over 8 steps in DMSO and briefly spun down. Each compound solution was now diluted 1:20 in Enzymatic Buffer (HEPES: 50 mM, pH: 7.5; MgCl2: 10 mM; EGTA: 1 mM; DTT: 2 mM; Tween-20: 0.01%), mixed thoroughly and spun down.
(§4) For positive controls, 2 μl of DMSO working solution were mixed with 6 μl CDK7/CycH/Mat1/substrate working solution and 2 μl ATP working solution. Positive and negative controls were calculated from at least 8 different wells. The 384 well plates were mixed in a Teleshaker plate mixer (Beckman Coulter, Brea, Calif., USA) at 2000 rpm for 40 sec, and incubated for 1 h at room temperature before addition of 10 μl LANCE Detection Buffer (1×; EDTA: […]; Eu-Anti-P-MBP: 4 nM) per well. Plates were mixed in a Teleshaker plate mixer (Beckman Coulter, Brea, Calif., USA) at 2000 rpm for 40 sec, followed by incubation with Detection Buffer for 1 h, and reading. […] IC50 values were determined from the sigmoidal dose response curves with the software Quattro Workflow (Quattro GmbH, Munich, Germany).

CDK9/Cyclin T1 = CDK9/Cyclin T1 (Homo sapiens, UniProt P50750); test: CDK9 Enzymatic Activity Assay (Lance Kinase Activity Assay, FRET); format: biochemical; conditions: for IC50: Table 5B, class symbols per IC50 [nM] ranges of b581, read-out: CDK9: Selectivity of CDK7 inhibition over CDK9 inhibition
Experimental: as §1, §2
CDK9 Enzymatic Activity Assay
as §3
as §4, with “CDK9/cyclin T1/substrate” for “CDK7/CycH/Mat1/substrate”

[1] = CDK7/CycH/Mat1, 25 μM ATP final, class ranges, read-out: CDK7: IC50 [nM] for CDK7 inhibition

Sequence of CDK9/Cyclin T1 (P50750 whole entry): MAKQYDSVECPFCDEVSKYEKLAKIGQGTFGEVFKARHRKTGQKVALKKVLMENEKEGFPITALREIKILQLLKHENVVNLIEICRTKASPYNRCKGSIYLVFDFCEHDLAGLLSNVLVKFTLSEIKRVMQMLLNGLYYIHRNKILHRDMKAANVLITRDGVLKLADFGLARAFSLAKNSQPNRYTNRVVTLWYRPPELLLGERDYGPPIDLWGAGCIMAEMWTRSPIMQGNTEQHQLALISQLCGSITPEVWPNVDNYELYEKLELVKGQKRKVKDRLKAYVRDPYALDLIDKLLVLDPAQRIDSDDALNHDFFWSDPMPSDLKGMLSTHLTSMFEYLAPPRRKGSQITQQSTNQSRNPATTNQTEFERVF
Sequence of CDK9/Cyclin T1 (O60563 whole entry partner): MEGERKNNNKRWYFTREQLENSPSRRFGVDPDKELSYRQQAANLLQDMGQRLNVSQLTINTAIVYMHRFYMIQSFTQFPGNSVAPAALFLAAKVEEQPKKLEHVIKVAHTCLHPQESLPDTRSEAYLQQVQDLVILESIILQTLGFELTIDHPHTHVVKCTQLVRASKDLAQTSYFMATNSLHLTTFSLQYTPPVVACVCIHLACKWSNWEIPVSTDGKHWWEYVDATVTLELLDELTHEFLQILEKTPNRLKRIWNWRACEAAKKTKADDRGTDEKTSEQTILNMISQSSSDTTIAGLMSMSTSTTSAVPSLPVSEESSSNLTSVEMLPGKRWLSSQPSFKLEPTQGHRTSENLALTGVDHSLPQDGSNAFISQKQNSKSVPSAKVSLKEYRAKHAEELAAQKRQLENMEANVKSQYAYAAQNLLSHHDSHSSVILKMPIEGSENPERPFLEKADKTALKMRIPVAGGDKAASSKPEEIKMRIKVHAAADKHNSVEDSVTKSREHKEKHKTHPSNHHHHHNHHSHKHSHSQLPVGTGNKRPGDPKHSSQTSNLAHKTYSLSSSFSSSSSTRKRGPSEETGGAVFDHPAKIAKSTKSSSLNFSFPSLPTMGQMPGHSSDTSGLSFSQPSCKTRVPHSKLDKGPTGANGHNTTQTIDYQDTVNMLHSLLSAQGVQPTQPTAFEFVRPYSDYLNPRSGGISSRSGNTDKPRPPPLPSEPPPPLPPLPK
Sequence of CDK7/CycH/Mat1 (P50613 whole entry): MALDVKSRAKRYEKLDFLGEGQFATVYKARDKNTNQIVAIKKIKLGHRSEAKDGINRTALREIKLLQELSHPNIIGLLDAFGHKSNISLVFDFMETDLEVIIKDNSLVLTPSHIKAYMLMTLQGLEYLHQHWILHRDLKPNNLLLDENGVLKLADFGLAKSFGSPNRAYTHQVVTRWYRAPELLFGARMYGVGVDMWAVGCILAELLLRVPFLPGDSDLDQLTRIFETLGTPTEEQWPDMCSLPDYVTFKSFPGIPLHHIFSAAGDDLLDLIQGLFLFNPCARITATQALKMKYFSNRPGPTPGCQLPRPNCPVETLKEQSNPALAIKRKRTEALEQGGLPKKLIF

## CC(C)c1cnn2c(NCc3ccccc3)nc(OC3CCN(C)CC3)nc12 [C-I, reference compound]
CDK7/CycH/Mat1; Table 6, read-out: IC50 CDK7
  IC50: < 5 nM

## CC(C)c1cnn2c(NCc3ccccc3-n3cccn3)nc(N3CCC4(CCCCN4)C3)nc12 (stereo not shown) [(VIII-06), N-(2-(1H-pyrazol-1-yl)benzyl)-8-isopropyl-2-(2,6-diazaspiro[4.5]decan-2-yl)pyrazolo[1,5-a][1,3,5]triazin-4-amine]
CDK7/CycH/Mat1; [1]
  IC50: < 5 nM
CDK9/Cyclin T1
  IC50: > 2500 nM

## CC(C)c1cnn2c(NCc3ccccc3-n3cccn3)nc(N3CC4(CNC4)C3)nc12 [(VIII-10), N-(2-(1H-pyrazol-1-yl)benzyl)-8-isopropyl-2-(2,6-diazaspiro[3.3]heptan-2-yl)pyrazolo[1,5-a][1,3,5]triazin-4-amine]
CDK7/CycH/Mat1; [1]
  IC50: 5 to 10 nM
CDK9/Cyclin T1
  IC50: > 2500 nM

## CC(C)c1cnn2c(NCc3ccccc3-c3ccco3)nc(O[C@@H]3CCCNC3)nc12 [(VII-50), (R)-N-(2-(furan-2-yl)benzyl)-8-isopropyl-2-(piperidin-3-yloxy)pyrazolo[1,5-a][1,3,5]triazin-4-amine]
CDK7/CycH/Mat1; [1]
  IC50: < 5 nM

## COc1ccccc1[C@H](C)Nc1nc(OC2CCNCC2)nc2c(C(C)C)cnn12 [(VII-15), (S)-8-isopropyl-N-(1-(2-methoxyphenyl)ethyl)-2-(piperidin-4-yloxy)pyrazolo[1,5-a][1,3,5]triazin-4-amine]
CDK7/CycH/Mat1; [1]
  IC50: < 5 nM
CDK9/Cyclin T1
  IC50: > 2500 nM

## Cc1ccccc1CNc1nc(OC2CCN(C)CC2)nc2c(C(C)C)cnn12 [(VII-53), 8-isopropyl-N-(2-methylbenzyl)-2-((1-methylpiperidin-4-yl)oxy)pyrazolo[1,5-a][1,3,5]triazin-4-amine]
CDK7/CycH/Mat1; [1]
  IC50: 5 to 10 nM
CDK9/Cyclin T1
  IC50: 50 to 500 nM

## CC(C)c1cnn2c(NCc3ccccc3-n3cccn3)nc(OC3CNC3)nc12 [(VII-141), N-(2-(1H-pyrazol-1-yl)benzyl)-2-(azetidin-3-yloxy)-8-isopropylpyrazolo[1,5-a][1,3,5]triazin-4-amine]
CDK7/CycH/Mat1; [1]
  IC50: 10 to 25 nM

## CC(C)c1cnn2c(NCc3ccccc3N3CCOCC3)nc(OC3CCN(C)CC3)nc12 [(VII-60), 8-isopropyl-2-((1-methylpiperidin-4-yl)oxy)-N-(2-morpholinobenzyl)pyrazolo[1,5-a][1,3,5]triazin-4-amine]
CDK7/CycH/Mat1; [1]
  IC50: > 25 nM
CDK9/Cyclin T1
  IC50: > 2500 nM

## COc1ccccc1[C@H](C)Nc1nc(N[C@@H]2CCCNC2)nc2c(C(C)C)cnn12 [(VIII-31), 8-isopropyl-N4-((S)-1-(2-methoxyphenyl)ethyl)-N2-((R)-piperidin-3-yl)pyrazolo[1,5-a][1,3,5]triazine-2,4-diamine]
CDK7/CycH/Mat1; [1]
  IC50: 5 to 10 nM
CDK9/Cyclin T1
  IC50: > 2500 nM

## CC(=O)Nc1ccccc1CNc1nc(O[C@@H]2CCCNC2)nc2c(C(C)C)cnn12 [(VII-51), (R)-N-(2-(((8-isopropyl-2-(piperidin-3-yloxy)pyrazolo[1,5-a][1,3,5]triazin-4-yl)amino)methyl)phenyl)acetamide]
CDK7/CycH/Mat1; [1]
  IC50: < 5 nM
CDK7/CycH/Mat1; Table 7, read-out: IC50 CDK7
  IC50: < 5 nM

## CC(C)Oc1ccccc1CNc1nc(OC2CCNCC2)nc2c(C(C)C)cnn12 [(VII-17), N-(2-isopropoxybenzyl)-8-isopropyl-2-(piperidin-4-yloxy)pyrazolo[1,5-a][1,3,5]triazin-4-amine]
CDK7/CycH/Mat1; [1]
  IC50: < 5 nM
CDK9/Cyclin T1
  IC50: > 2500 nM

## CC(C)c1cnn2c(NCc3ccccc3-n3cccn3)nc(OC3CC4(CNC4)C3)nc12 [(VII-04), N-(2-(1H-pyrazol-1-yl)benzyl)-2-(2-azaspiro[3.3]heptan-6-yloxy)-8-isopropylpyrazolo[1,5-a][1,3,5]triazin-4-amine]
CDK7/CycH/Mat1; [1]
  IC50: < 5 nM

## CC(C)c1cnn2c(NCc3ccccc3-c3nnn(C)n3)nc(N3CCC4(CCCN4)CC3)nc12 [(VIII-19), 8-isopropyl-N-(2-(2-methyl-2H-tetrazol-5-yl)benzyl)-2-(1,8-diazaspiro[4.5]decan-8-yl)pyrazolo[1,5-a][1,3,5]triazin-4-amine]
CDK7/CycH/Mat1; [1]
  IC50: < 5 nM
CDK9/Cyclin T1
  IC50: > 2500 nM

## Cc1cccc(Cl)c1CNc1nc(OC2CCN(C)CC2)nc2c(C(C)C)cnn12 [(VII-62), N-(2-chloro-6-methylbenzyl)-8-isopropyl-2-((1-methylpiperidin-4-yl)oxy)pyrazolo[1,5-a][1,3,5]triazin-4-amine]
CDK7/CycH/Mat1; [1]
  IC50: 10 to 25 nM
CDK9/Cyclin T1
  IC50: > 2500 nM

## CC(C)c1cnn2c(NCc3ccccc3-n3cccn3)nc(N3CC4(CCNCC4)C3)nc12 [(VIII-12), N-(2-(1H-pyrazol-1-yl)benzyl)-8-isopropyl-2-(2,7-diazaspiro[3.5]nonan-2-yl)pyrazolo[1,5-a][1,3,5]triazin-4-amine]
CDK7/CycH/Mat1; [1]
  IC50: < 5 nM
CDK9/Cyclin T1
  IC50: > 2500 nM

## CC(C)c1cnn2c(NCc3ccccc3-c3nnnn3C)nc(N3CCC4(CCCN4)CC3)nc12 [(VIII-18), 8-isopropyl-N-(2-(1-methyl-1H-tetrazol-5-yl)benzyl)-2-(1,8-diazaspiro[4.5]decan-8-yl)pyrazolo[1,5-a][1,3,5]triazin-4-amine]
CDK7/CycH/Mat1; [1]
  IC50: < 5 nM
CDK9/Cyclin T1
  IC50: > 2500 nM

## CC(C)c1cnn2c(NCc3ccccc3S(=O)(=O)N(C)C)nc(N3CCC4(CCCN4)CC3)nc12 [(VIII-35), 2-(((8-isopropyl-2-(1,8-diazaspiro[4.5]decan-8-yl)pyrazolo[1,5-a][1,3,5]triazin-4-yl)amino)methyl)-N,N-dimethylbenzenesulfonamide]
CDK7/CycH/Mat1; [1]
  IC50: < 5 nM
CDK9/Cyclin T1
  IC50: > 2500 nM

## CC(C)c1cnn2c(N[C@@H](C)c3cccc4ccccc34)nc(OC3CCN(C)CC3)nc12 [(VII-69), (S)-8-isopropyl-2-((1-methylpiperidin-4-yl)oxy)-N-(1-(naphthalen-1-yl)ethyl)pyrazolo[1,5-a][1,3,5]triazin-4-amine]
CDK7/CycH/Mat1; [1]
  IC50: < 5 nM
CDK9/Cyclin T1
  IC50: > 2500 nM

## CC(C)c1cnn2c(NCc3ccccc3-c3ncco3)nc(O[C@@H]3CCCNC3)nc12 [(VII-49), (R)-8-isopropyl-N-(2-(oxazol-2-yl)benzyl)-2-(piperidin-3-yloxy)pyrazolo[1,5-a][1,3,5]triazin-4-amine]
CDK7/CycH/Mat1; [1]
  IC50: < 5 nM

## COc1ccccc1[C@H](C)Nc1nc(O[C@@H]2CCCNC2)nc2c(C(C)C)cnn12 [(VII-10), 8-isopropyl-N-((S)-1-(2-methoxyphenyl)ethyl)-2-((R)-piperidin-3-yloxy)pyrazolo[1,5-a][1,3,5]triazin-4-amine]
CDK7/CycH/Mat1; [1]
  IC50: < 5 nM
CDK9/Cyclin T1
  IC50: 500 to 2500 nM

## CC(C)c1cnn2c(NCc3ccccc3C(F)(F)F)nc(OC3CCN(C)CC3)nc12 [(VII-058), 8-isopropyl-2-((1-methylpiperidin-4-yl)oxy)-N-(2-(trifluoromethyl)benzyl)pyrazolo[1,5-a][1,3,5]triazin-4-amine]
CDK7/CycH/Mat1; [1]
  IC50: > 25 nM

## CCOc1ccccc1CNc1nc(OC2CCN(C)CC2)nc2c(C(C)C)cnn12 [(VII-70), N-(2-ethoxybenzyl)-8-isopropyl-2-((1-methylpiperidin-4-yl)oxy)pyrazolo[1,5-a][1,3,5]triazin-4-amine]
CDK7/CycH/Mat1; [1]
  IC50: < 5 nM
CDK7/CycH/Mat1; Table 6, read-out: IC50 CDK7
  IC50: < 5 nM
CDK9/Cyclin T1
  IC50: > 2500 nM
CDK9/Cyclin T1; Table 6
  Selectivity CDK7 over CDK9: 992 fold

## CC(C)c1cnn2c(NCc3c(F)cccc3F)nc(OC3CCN(C)CC3)nc12 [(VII-64), N-(2,6-difluorobenzyl)-8-isopropyl-2-((1-methylpiperidin-4-yl)oxy)pyrazolo[1,5-a][1,3,5]triazin-4-amine]
CDK7/CycH/Mat1; [1]
  IC50: 5 to 10 nM
CDK9/Cyclin T1
  IC50: 50 to 500 nM

## CC(C)c1cnn2c(NCc3ccccc3)nc(O[C@@H]3CCCNC3)nc12 [C-II, reference compound]
CDK7/CycH/Mat1; Table 6, read-out: IC50 CDK7
  IC50: < 5 nM

## CC(C)c1cnn2c(NCc3ccccc3NC(=O)Nc3ccccc3)nc(O[C@@H]3CCCNC3)nc12 [(VII-111), (R)-1-(2-(((8-isopropyl-2-(piperidin-3-yloxy)pyrazolo[1,5-a][1,3,5]triazin-4-yl)amino)methyl)phenyl)-3-phenylurea]
CDK7/CycH/Mat1; [1]
  IC50: 10 to 25 nM

## CC(C)c1cnn2c(NCc3ccccc3Oc3ccccc3)nc(O[C@@H]3CCCNC3)nc12 [(VII-48), (R)-8-isopropyl-N-(2-phenoxybenzyl)-2-(piperidin-3-yloxy)pyrazolo[1,5-a][1,3,5]triazin-4-amine]
CDK7/CycH/Mat1; [1]
  IC50: < 5 nM

## CC(C)c1cnn2c(NCc3ccccc3Oc3ccccc3)nc(OC3CCN(C)CC3)nc12 [(VII-47), 8-isopropyl-2-((1-methylpiperidin-4-yl)oxy)-N-(2-phenoxybenzyl)pyrazolo[1,5-a][1,3,5]triazin-4-amine]
CDK7/CycH/Mat1; [1]
  IC50: < 5 nM

Source: patent publication US9567345B2, “Pharmaceutically active pyrazolo-triazine derivatives” (LEAD DISCOVERY CENTER GMBH, priority 2012, dated 2017)
